In general, Kd refers to the constant that tells how readily two partners part at equilibrium.

The structures appear in SMILES notation. The source made the active and inactive calls.

For 18 molecules, Kd results are on record in ChEMBL document CHEMBL3991601, “The target landscape of clinical kinase drugs” (Science, 2017).

Experiment [1] has as its target Adenylate kinase 2, mitochondrial (Homo sapiens, UniProt P54819).
Experiment [2] deals with T1, Serine/threonine-protein kinase A-Raf (Homo sapiens, UniProt P10398).
T1 sequence (P10398 whole entry): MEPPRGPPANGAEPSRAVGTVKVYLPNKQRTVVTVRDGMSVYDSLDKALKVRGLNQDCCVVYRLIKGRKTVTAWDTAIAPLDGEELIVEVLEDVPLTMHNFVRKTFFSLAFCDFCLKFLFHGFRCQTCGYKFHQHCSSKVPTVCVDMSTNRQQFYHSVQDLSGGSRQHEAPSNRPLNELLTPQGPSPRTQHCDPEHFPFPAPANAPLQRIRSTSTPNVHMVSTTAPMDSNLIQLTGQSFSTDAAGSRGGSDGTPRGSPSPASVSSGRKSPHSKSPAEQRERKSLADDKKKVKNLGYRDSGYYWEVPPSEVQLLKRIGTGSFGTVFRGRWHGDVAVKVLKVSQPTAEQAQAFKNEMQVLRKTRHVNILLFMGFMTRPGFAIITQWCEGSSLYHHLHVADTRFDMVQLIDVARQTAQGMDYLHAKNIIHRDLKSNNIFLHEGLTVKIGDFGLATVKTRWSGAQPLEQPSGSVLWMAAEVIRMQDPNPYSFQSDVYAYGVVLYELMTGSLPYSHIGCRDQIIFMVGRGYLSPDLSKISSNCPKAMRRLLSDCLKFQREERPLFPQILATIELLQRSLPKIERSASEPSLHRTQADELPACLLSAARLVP

For experiment [3], the target named is T2, Cysteine--tRNA ligase, cytoplasmic (Homo sapiens, UniProt P49589).
T2 sequence (P49589 whole entry): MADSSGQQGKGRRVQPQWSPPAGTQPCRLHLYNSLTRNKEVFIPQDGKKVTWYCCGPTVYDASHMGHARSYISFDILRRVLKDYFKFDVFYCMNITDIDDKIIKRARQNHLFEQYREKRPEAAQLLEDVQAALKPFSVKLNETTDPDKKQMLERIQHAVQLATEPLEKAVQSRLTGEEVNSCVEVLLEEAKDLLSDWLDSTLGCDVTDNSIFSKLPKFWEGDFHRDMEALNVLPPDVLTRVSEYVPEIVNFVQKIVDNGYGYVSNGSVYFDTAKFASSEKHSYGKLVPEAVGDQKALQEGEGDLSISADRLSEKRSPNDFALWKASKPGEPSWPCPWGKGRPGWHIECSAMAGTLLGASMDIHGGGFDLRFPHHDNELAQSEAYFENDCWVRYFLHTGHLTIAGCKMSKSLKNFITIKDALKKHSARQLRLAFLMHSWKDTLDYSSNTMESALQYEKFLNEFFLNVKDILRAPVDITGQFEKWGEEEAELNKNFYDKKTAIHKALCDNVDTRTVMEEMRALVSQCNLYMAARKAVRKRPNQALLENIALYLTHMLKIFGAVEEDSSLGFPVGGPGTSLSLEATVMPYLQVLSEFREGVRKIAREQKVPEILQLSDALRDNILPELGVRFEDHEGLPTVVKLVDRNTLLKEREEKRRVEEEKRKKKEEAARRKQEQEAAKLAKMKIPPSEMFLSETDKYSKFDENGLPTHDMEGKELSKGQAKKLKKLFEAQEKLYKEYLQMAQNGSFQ

Another experiment addresses Ephrin type-A receptor 4 (Homo sapiens, UniProt P54764).
In experiment [4] the target is Mitogen-activated protein kinase kinase kinase kinase 5 (Homo sapiens, UniProt Q9Y4K4).
For experiment [5], the target named is T3, Serine/threonine-protein kinase TBK1 (Homo sapiens, UniProt Q9UHD2).
T3 sequence (Q9UHD2 whole entry): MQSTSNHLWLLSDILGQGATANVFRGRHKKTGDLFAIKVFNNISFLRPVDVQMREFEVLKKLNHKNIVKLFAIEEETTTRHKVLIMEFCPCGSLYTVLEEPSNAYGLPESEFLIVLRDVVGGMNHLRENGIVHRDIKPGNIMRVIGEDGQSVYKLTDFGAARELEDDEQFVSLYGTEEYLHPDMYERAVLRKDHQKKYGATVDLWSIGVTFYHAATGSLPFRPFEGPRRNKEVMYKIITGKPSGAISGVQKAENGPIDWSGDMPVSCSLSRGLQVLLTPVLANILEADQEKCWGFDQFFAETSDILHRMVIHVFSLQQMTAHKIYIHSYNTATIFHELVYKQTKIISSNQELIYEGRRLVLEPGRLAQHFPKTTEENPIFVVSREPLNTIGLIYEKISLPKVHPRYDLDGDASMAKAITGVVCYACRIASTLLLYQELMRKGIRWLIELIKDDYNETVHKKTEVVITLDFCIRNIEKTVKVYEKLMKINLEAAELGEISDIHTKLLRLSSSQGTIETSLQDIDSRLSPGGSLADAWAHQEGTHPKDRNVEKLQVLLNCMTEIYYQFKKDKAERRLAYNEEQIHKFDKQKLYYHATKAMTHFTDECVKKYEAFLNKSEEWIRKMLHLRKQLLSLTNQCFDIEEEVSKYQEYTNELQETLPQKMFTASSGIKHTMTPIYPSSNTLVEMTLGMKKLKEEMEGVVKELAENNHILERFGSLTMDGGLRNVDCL

Experiment [6] deals with TRAF2 and NCK-interacting protein kinase (Homo sapiens, UniProt Q9UKE5).
The target in experiment [7] is T4, Serine/threonine-protein kinase ICK (Homo sapiens, UniProt Q9UPZ9).
T4 sequence (Q9UPZ9 whole entry): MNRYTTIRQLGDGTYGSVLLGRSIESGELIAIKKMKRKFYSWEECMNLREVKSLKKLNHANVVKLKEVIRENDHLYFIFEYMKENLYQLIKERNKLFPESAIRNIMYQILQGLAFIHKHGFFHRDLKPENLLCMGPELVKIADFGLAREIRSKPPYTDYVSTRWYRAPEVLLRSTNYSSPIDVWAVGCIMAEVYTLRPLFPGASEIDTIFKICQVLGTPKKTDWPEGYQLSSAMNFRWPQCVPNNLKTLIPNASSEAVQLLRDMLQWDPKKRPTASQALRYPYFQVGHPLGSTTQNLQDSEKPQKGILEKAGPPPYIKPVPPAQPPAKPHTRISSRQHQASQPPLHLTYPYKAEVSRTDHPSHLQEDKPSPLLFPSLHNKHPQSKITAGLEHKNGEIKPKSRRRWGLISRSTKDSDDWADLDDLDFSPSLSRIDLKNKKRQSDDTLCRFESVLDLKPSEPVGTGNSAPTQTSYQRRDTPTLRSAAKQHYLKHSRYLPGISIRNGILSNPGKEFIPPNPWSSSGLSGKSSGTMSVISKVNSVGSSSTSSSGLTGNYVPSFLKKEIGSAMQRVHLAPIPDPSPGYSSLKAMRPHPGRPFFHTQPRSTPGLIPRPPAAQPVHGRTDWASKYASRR
Further: in the data inactive means no Kd found up to 30 µM.

Mitogen-activated protein kinase kinase kinase kinase 5, sequence (Q9Y4K4 whole entry): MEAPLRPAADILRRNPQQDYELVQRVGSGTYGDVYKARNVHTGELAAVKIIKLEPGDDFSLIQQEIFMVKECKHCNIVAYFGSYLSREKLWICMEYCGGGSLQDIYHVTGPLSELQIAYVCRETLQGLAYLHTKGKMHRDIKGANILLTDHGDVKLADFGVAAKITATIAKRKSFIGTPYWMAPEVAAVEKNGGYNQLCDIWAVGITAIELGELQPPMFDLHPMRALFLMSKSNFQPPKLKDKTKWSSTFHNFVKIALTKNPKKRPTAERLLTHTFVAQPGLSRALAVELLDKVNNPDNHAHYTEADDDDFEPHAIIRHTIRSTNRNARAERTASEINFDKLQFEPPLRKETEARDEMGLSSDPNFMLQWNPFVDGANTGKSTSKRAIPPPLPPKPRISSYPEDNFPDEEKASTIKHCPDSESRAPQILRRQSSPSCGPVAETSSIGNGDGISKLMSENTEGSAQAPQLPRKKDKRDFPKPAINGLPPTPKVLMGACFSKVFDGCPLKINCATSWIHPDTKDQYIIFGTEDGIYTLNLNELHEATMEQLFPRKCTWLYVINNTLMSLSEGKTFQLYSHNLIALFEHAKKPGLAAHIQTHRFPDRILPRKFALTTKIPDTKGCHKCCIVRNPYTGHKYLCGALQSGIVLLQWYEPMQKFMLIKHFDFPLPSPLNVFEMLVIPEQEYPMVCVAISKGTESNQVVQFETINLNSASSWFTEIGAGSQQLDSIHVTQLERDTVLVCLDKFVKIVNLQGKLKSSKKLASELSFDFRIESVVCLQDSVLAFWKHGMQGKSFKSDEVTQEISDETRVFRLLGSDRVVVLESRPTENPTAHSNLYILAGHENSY
Ephrin type-A receptor 4, sequence (P54764 whole entry): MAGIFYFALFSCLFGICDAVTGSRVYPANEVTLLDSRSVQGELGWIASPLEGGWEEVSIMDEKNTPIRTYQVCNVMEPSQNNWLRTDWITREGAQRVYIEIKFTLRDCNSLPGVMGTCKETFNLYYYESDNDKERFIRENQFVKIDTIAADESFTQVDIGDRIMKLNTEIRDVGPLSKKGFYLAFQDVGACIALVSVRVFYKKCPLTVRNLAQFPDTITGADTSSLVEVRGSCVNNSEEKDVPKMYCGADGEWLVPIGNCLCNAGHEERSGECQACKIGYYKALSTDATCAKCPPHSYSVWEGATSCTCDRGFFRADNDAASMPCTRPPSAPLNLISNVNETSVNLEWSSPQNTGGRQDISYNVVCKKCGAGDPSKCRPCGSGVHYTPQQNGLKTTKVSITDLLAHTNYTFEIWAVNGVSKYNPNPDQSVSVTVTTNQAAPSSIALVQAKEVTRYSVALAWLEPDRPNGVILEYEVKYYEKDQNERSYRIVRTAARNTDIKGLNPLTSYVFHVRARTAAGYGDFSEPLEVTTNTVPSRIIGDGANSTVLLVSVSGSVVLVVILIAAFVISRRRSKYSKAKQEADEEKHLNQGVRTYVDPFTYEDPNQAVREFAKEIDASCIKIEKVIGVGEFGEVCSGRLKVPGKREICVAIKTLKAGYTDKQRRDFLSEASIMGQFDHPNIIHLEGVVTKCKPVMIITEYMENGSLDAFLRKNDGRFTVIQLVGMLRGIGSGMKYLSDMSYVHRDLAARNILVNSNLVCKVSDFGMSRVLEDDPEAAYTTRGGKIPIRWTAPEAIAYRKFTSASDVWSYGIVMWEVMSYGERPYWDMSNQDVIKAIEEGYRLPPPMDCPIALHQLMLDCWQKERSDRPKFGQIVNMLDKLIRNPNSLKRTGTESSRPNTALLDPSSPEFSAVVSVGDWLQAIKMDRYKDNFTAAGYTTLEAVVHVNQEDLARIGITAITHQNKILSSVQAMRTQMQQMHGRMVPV
TRAF2 and NCK-interacting protein kinase, sequence (Q9UKE5 whole entry): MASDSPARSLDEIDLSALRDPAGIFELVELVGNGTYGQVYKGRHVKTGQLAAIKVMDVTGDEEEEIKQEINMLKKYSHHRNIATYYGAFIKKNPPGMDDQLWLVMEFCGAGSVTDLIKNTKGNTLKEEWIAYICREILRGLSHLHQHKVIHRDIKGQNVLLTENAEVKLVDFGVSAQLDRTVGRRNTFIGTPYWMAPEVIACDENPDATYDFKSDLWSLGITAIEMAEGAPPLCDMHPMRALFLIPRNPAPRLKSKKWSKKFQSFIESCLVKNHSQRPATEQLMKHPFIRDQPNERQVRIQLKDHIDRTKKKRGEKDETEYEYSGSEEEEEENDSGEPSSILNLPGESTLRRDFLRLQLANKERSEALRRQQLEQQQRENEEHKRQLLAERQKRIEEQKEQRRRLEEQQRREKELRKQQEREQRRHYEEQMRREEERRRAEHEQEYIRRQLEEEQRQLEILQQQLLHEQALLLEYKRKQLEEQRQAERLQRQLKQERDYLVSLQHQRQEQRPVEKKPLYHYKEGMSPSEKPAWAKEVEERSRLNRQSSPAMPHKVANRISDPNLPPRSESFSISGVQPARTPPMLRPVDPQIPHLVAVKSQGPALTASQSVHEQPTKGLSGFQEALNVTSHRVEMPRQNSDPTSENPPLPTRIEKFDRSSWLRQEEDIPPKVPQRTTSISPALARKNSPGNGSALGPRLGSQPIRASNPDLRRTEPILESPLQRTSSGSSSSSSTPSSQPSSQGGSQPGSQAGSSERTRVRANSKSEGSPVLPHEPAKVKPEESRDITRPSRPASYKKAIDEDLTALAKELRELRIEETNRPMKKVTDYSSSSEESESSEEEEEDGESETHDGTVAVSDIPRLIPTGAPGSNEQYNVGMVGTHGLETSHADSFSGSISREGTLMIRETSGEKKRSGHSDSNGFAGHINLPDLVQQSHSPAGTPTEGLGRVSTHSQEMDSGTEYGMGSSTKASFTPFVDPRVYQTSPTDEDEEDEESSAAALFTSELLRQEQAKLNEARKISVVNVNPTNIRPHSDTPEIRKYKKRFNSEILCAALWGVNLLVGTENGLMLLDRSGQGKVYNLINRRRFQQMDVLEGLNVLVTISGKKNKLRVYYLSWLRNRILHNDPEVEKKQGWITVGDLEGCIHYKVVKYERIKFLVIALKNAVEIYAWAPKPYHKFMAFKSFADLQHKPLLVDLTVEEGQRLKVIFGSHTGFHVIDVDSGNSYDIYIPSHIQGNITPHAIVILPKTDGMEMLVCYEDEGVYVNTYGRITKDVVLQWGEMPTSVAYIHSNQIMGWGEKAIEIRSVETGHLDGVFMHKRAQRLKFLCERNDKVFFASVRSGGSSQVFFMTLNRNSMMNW

For `S=C(NCc1ccc2c(c1)OCO2)N1CCN(c2ncnc3c2oc2ccccc23)CC1` [AMUVATINIB], the Kd (in experiment [1]; in experiment [2]; in experiment [3]; on Ephrin type-A receptor 4; in experiment [4]; in experiment [5]) was > 30 µM (inactive) in each case. Further, the Kd in experiment [6] was > 30 µM (inactive).
In the case of `Cn1c(=O)n(-c2ccc(C(C)(C)C#N)cc2)c2c3cc(-c4cnc5ccccc5c4)ccc3ncc21` [DACTOLISIB], the Kd (in experiment [1]; in experiment [2]; in experiment [3]; on Ephrin type-A receptor 4; in experiment [7]; in experiment [6]) was > 30 µM (inactive) each time.
As for `O=c1[nH]c([C@@H]2CCCN2)nc2c1oc1ccc(Cl)cc12`, the Kd (in experiment [1]; in experiment [2]; at Ephrin type-A receptor 4; in experiment [4]; in experiment [5]; in experiment [6]) was > 30 µM (inactive) each time.
In the case of `C[C@@]1(C(=O)Nc2ccc(F)nc2)CCCN1c1nc(Nc2cc(C3CC3)n[nH]2)c2cccn2n1` [BMS-754807], the Kd in experiment [1], in experiment [2] and in experiment [3] was > 30 µM (inactive) in each case.
Take `CN(c1ncccc1CNc1nc(Nc2ccc3c(c2)CC(=O)N3)ncc1C(F)(F)F)S(C)(=O)=O` [PF-00562271]: the Kd (in experiment [1]; in experiment [2]; in experiment [3]; on Ephrin type-A receptor 4; in experiment [7]) was > 30 µM (inactive) in each case.
Regarding `CN1CCN(c2nc(C3=C(c4c[nH]c5ccccc45)C(=O)NC3=O)c3ccccc3n2)CC1` [SOTRASTAURIN], the Kd in experiment [1] was > 30 µM (inactive); in experiment [2], > 30 µM (inactive); in experiment [3] it was > 30 µM (inactive); on Ephrin type-A receptor 4, > 30 µM (inactive); in experiment [7], 6.69 µM; in experiment [5], > 30 µM (inactive). For the same molecule, in experiment [6], binding was put at a Kd of 0.038 µM.
On to `N#CCNC(=O)c1ccc(-c2ccnc(Nc3ccc(N4CCOCC4)cc3)n2)cc1` [MOMELOTINIB], for which the Kd (in experiment [1]; in experiment [2]; in experiment [3]; at Ephrin type-A receptor 4) was > 30 µM (inactive) in each case.
`COc1cc2c(Oc3ccc4[nH]c(C)cc4c3F)ncnc2cc1OCCCN1CCCC1` [CEDIRANIB]: the Kd in experiment [1], in experiment [2] and in experiment [3] was > 30 µM (inactive) in each case.
In the case of `Cn1cnc2c(F)c(Nc3ccc(Br)cc3Cl)c(C(=O)NOCCO)cc21` [SELUMETINIB], the Kd in experiment [1], in experiment [2] and in experiment [3] was > 30 µM (inactive) each time.
With `COc1cc2c(N3CCN(C(=O)Nc4ccc(OC(C)C)cc4)CC3)ncnc2cc1OCCCN1CCCCC1` [TANDUTINIB], the Kd in experiment [1] and in experiment [2] was > 30 µM (inactive) each time.
Regarding `COc1cccc(Nc2ncnn3ccc(CN4CC[C@@H](N)[C@H](O)C4)c23)c1` [BMS-690514], the Kd (in experiment [1]; in experiment [2]; at Ephrin type-A receptor 4; in experiment [7]; in experiment [5]; in experiment [6]) was > 30 µM (inactive) in each case.
On to `CC1(C)CNc2cc(NC(=O)c3cccnc3NCc3ccncc3)ccc21` [MOTESANIB], for which the Kd in experiment [1], in experiment [2] and in experiment [3] was > 30 µM (inactive) each time.
`C=CCn1c(=O)c2cnc(Nc3ccc(N4CCN(C)CC4)cc3)nc2n1-c1cccc(C(C)(C)O)n1` [ADAVOSERTIB]: the Kd (in experiment [1]; in experiment [2]; in experiment [3]; at Ephrin type-A receptor 4; in experiment [7]; in experiment [6]) was > 30 µM (inactive) each time.
Turning to `NC[C@@](O)(c1ccc(Cl)cc1)c1ccc(-c2cn[nH]c2)cc1` [AT-13148], the Kd (in experiment [1]; in experiment [3]; at Ephrin type-A receptor 4; in experiment [4]; in experiment [5]; in experiment [6]) was > 30 µM (inactive) in each case.
Take `CN(C)C/C=C/C(=O)Nc1cc2c(Nc3ccc(F)c(Cl)c3)ncnc2cc1O[C@H]1CCOC1` [AFATINIB]: the Kd in experiment [1], in experiment [2] and in experiment [3] was > 30 µM (inactive) each time.
With `O=S(=O)(c1cccc2cnccc12)N1CCCNCC1` [FASUDIL], the Kd (in experiment [1]; in experiment [2]; in experiment [3]; on Ephrin type-A receptor 4; in experiment [6]) was > 30 µM (inactive) in each case.
For the molecule `Cc1c(NC(=O)OC[C@@H]2COCCN2)cn2ncnc(Nc3ccc4c(cnn4Cc4cccc(F)c4)c3)c12` [AC-480], the Kd (in experiment [1]; in experiment [2]; at Ephrin type-A receptor 4; in experiment [4]; in experiment [5]; in experiment [6]) was > 30 µM (inactive) throughout.
Take `O=C(NC[C@H](O)CO)c1ccncc1Nc1ccc(I)cc1F` [PIMASERTIB]: the Kd (in experiment [1]; in experiment [2]; in experiment [3]; at Ephrin type-A receptor 4; in experiment [4]; in experiment [5]) was > 30 µM (inactive) each time. The Kd in experiment [6] is > 30 µM (inactive).
